Experimental data published in ChEMBL document CHEMBL1132741, “Novel antifungals based on 4-substituted imidazole: a combinatorial chemistry approach to lead discovery and optimization” (Bioorg Med Chem Lett, 2000).
≈ marks a conversion by molar mass, not a printed value.

Experiments:
[1] = Antifungal activity against molds expressed as negative log (pLAD value).; format: functional, mould
[2] = system: Saccharomyces cerevisiae; experiment: Antifungal activity against yeast expressed as negative log (pLAD value).; format: functional
[3] = system: Candida tropicalis; experiment: Minimum inhibitory concentration of compound for antifungal activity against Candida tropicalis; format: functional
[4] = system: Candida albicans; experiment: Inhibition of ergosterol synthesis as measured in Candida albicans subcellular screen; format: functional
[5] = system: Sporothrix schenckii; experiment: Minimum inhibitory concentration of compound for antifungal activity against Sporothrix schenck ii; format: functional
[6] = system: Candida albicans; experiment: Minimum inhibitory concentration of compound for antifungal activity against Candida albicans 4; format: functional
[7] = system: Cryptococcus neoformans; experiment: Minimum inhibitory concentration of compound for antifungal activity against Cryptococcus neoformans; format: functional
[8] = system: Candida parapsilosis; experiment: Minimum inhibitory concentration of compound for antifungal activity against Candida parapsilosis; format: functional; settings: Lodderomyces parapsilosis
[9] = system: Pichia kudriavzevii; experiment: Minimum inhibitory concentration of compound for antifungal activity against Candida krusei; format: functional
[10] = system: Aspergillus fumigatus; experiment: Minimum inhibitory concentration of compound for antifungal activity against Aspergillus fumigatus; format: functional
[11] = system: Candida albicans; experiment: Minimum inhibitory concentration of compound for antifungal activity against Candida albicans 1; format: functional
[12] = system: Nakaseomyces glabratus; experiment: Minimum inhibitory concentration of compound for antifungal activity against Candida glabrata; format: functional
[13] = system: Microsporum canis; experiment: Minimum inhibitory concentration of compound for antifungal activity against Mucosporam canis; format: functional
[14] = system: Trichophyton benhamiae; experiment: Minimum inhibitory concentration of compound for antifungal activity against Trichophyton mentagrophytes; format: functional, Arthroderma benhamiae
[15] = system: Kluyveromyces marxianus; experiment: Minimum inhibitory concentration of compound for antifungal activity against Candida kefyr; format: functional
[16] = system: Candida albicans; experiment: Minimum inhibitory concentration of compound for antifungal activity against Candida albicans 2; format: functional
[17] = system: Trichophyton rubrum; experiment: Minimum inhibitory concentration of compound for antifungal activity against Trichophyton rubrum; format: functional

Compound | pLADm [1] | pLADy [2] | MIC [3] | IC50 [4] | MIC [5] | MIC [6] | MIC [7] | MIC [8] | MIC [9] | MIC [10] | MIC [11] | MIC [12] | MIC [13] | MIC [14] | MIC [15] | MIC [16] | MIC [17]
CCCCOc1ccc(S(=O)(=O)N(Cc2c[nH]cn2)C(C2CCCCC2)C2CCCCC2)cc1 | 4 | 5 | – | – | – | – | – | – | – | – | – | – | – | – | – | – | –
CCCCOc1ccc(S(=O)(=O)N(CCc2ccc(F)cc2)Cc2c[nH]cn2)cc1 | 4.6 | 6.2 | < 0.1 µM | 26 nM | > 10 µM | 10 µM (≈ 4.32 µg/mL) | 1 µM (≈ 0.432 µg/mL) | 1 µM (≈ 0.432 µg/mL) | > 10 µM | > 10 µM | > 10 µM | 10 µM (≈ 4.32 µg/mL) | 10 µM (≈ 4.32 µg/mL) | > 10 µM | < 0.1 µM | < 0.1 µM | 1 µM (≈ 0.432 µg/mL)
CCCCOc1ccc(S(=O)(=O)N(Cc2c[nH]cn2)C(C(C)C)C(C)C)cc1 | 5 | 6.7 | 0.1 µM (≈ 0.0408 µg/mL) | 73 nM | > 10 µM | < 0.1 µM | 1 µM (≈ 0.408 µg/mL) | 0.1 µM (≈ 0.0408 µg/mL) | 10 µM (≈ 4.08 µg/mL) | > 10 µM | > 10 µM | 10 µM (≈ 4.08 µg/mL) | 1 µM (≈ 0.408 µg/mL) | 10 µM (≈ 4.08 µg/mL) | < 0.1 µM | < 0.1 µM | 1 µM (≈ 0.408 µg/mL)
CCCCOc1ccc(S(=O)(=O)N(CCc2ccccc2F)Cc2[nH]cnc2C)cc1 | <4 | <4 | – | – | – | – | – | – | – | – | – | – | – | – | – | – | –
CCCCOc1ccc(S(=O)(=O)N(Cc2cncn2C)C(C)C2CCCCC2)cc1 (stereo not given) | 4.8 | 6.6 | 0.1 µM (≈ 0.0434 µg/mL) | – | > 10 µM | 10 µM (≈ 4.34 µg/mL) | 1 µM (≈ 0.434 µg/mL) | 0.1 µM (≈ 0.0434 µg/mL) | 1 µM (≈ 0.434 µg/mL) | > 10 µM | > 10 µM | 1 µM (≈ 0.434 µg/mL) | 1 µM (≈ 0.434 µg/mL) | 10 µM (≈ 4.34 µg/mL) | < 0.1 µM | < 0.1 µM | 1 µM (≈ 0.434 µg/mL)
Brc1ccc(CCN(Cc2ccc(-c3ccccc3)cc2)Cc2c[nH]cn2)cc1 | 5.8 | 4.9 | – | 1240 nM | – | – | – | – | – | – | – | – | – | – | – | – | –
CCCCCc1ccc(S(=O)(=O)N(CCC(C)C)Cc2c[nH]cn2)cc1 | 5 | 6.4 | – | 120 nM | – | – | – | – | – | – | – | – | – | – | – | – | –
CCCCOc1ccc(S(=O)(=O)N(CCc2cccs2)Cc2c[nH]cn2)cc1 | 4.4 | 6.5 | – | 11 nM | – | – | – | – | – | – | – | – | – | – | – | – | –
OC(Cn1cncn1)(Cn1cncn1)c1ccc(F)cc1F [FLUCONAZOLE] | – | – | > 10 µM | – | > 10 µM | 1 µM (≈ 0.306 µg/mL) | 10 µM (≈ 3.06 µg/mL) | 10 µM (≈ 3.06 µg/mL) | > 10 µM | > 10 µM | > 10 µM | > 10 µM | 10 µM (≈ 3.06 µg/mL) | > 10 µM | 1 µM (≈ 0.306 µg/mL) | 1 µM (≈ 0.306 µg/mL) | 10 µM (≈ 3.06 µg/mL)
CCC(C)n1ncn(-c2ccc(N3CCN(c4ccc(OCC5COC(Cn6cncn6)(c6ccc(Cl)cc6Cl)O5)cc4)CC3)cc2)c1=O (stereo not given) [ITRACONAZOLE] | – | – | 0.1 µM (≈ 0.0706 µg/mL) | – | 10 µM (≈ 7.06 µg/mL) | > 10 µM | < 0.1 µM | < 0.1 µM | 1 µM (≈ 0.706 µg/mL) | 1 µM (≈ 0.706 µg/mL) | > 10 µM | 1 µM (≈ 0.706 µg/mL) | < 0.1 µM | 0.1 µM (≈ 0.0706 µg/mL) | < 0.1 µM | < 0.1 µM | < 0.1 µM
CC(=O)N1CCN(c2ccc(OC[C@H]3CO[C@](Cn4ccnc4)(c4ccc(Cl)cc4Cl)O3)cc2)CC1 [KETOCONAZOLE] | – | – | 10 µM (≈ 5.31 µg/mL) | – | 10 µM (≈ 5.31 µg/mL) | 10 µM (≈ 5.31 µg/mL) | 0.1 µM (≈ 0.0531 µg/mL) | 0.1 µM (≈ 0.0531 µg/mL) | 1 µM (≈ 0.531 µg/mL) | 10 µM (≈ 5.31 µg/mL) | > 10 µM | 10 µM (≈ 5.31 µg/mL) | 1 µM (≈ 0.531 µg/mL) | 10 µM (≈ 5.31 µg/mL) | < 0.1 µM | 0.1 µM (≈ 0.0531 µg/mL) | 0.1 µM (≈ 0.0531 µg/mL)
